Laboratory results published in patent US20260102359A1, “COMBINATION TREATMENT OF DERMAL AND TRANSDERMAL FIBROTIC DISEASES, DISORDERS AND ASSOCIATED PAIN AND INFLAMMATION” (ERESINA, LLC, priority 2022, published 2026).
Counter-ions that a name gives are not always drawn. Where a SMILES comes first, the peptide text is derived from it. Bridges are numbered along the chain shown (N, C = ends). [ ]: non-standard residue; d: D form. hArg = N=C(N)NCCCC[C@H](N)C(=O)O; Mpa = O=C(O)CCS

Tested on: hDMFa myofibroblast cells

For `Cc1c(OCC(F)(F)F)ccnc1C[S@@+]([O-])c1nc2ccccc2[nH]1` [Cmpd 345, Dexlansoprazole], the “Compound Myofibroblast Cytotoxicity Activity” value was “++”.

With `NC(=O)CC[C@@H](N)C(=O)O` [Cmpd 346, D-Glutamine] the “Compound Myofibroblast Cytotoxicity Activity” value was “++”.

With `CC(=O)Nc1c(I)c(NC(C)=O)c(I)c(C(=O)O)c1I` [Cmpd 348, Diatrizoic acid] the “Compound Myofibroblast Cytotoxicity Activity” value was “++”.

With `COc1ccc(Cc2cnc(N)nc2N)cc1OC` [Cmpd 349, Diaveridine] the “Compound Myofibroblast Cytotoxicity Activity” value was “++”.

For `Oc1ccc(Cl)cc1Cc1cc(Cl)ccc1O` [Cmpd 353, Dichlorophen], the “Compound Myofibroblast Cytotoxicity Activity” value was “+++++”.

In the case of `N#CC(c1ccc(Cl)cc1)c1c(Cl)cc(-n2ncc(=O)[nH]c2=O)cc1Cl` (centres unmarked) [Cmpd 354, Diclazuril], the “Compound Myofibroblast Cytotoxicity Activity” value is reported as “+++”.

For `O=C(O)Cc1ccccc1Nc1c(Cl)cccc1Cl` [Cmpd 355, Diclofenac], the “Compound Myofibroblast Cytotoxicity Activity” value was “++”.

For `CC/C(=C(/CC)c1ccc(O)cc1)c1ccc(O)cc1` [Cmpd 358, Diethylstilbestrol], the “Compound Myofibroblast Cytotoxicity Activity” value was “+++”.

In the case of `O=C(O)c1cc(-c2ccc(F)cc2F)ccc1O` [Cmpd 359, Diflunisal], the “Compound Myofibroblast Cytotoxicity Activity” value is reported as “++”.

`OC(CCCN1CCCCC1)(c1ccccc1)c1ccccc1` [Cmpd 365, Diphenidol HCl] was tested, and the “Compound Myofibroblast Cytotoxicity Activity” value was “++++”.

For `CC(C)N(CCC(C(N)=O)(c1ccccc1)c1ccccn1)C(C)C` (centres unmarked) [Cmpd 366, Disopyramide], the “Compound Myofibroblast Cytotoxicity Activity” value was “++”.

`CC/C=C\C/C=C\C/C=C\C/C=C\C/C=C\C/C=C\CCC(=O)O` [Cmpd 375, Docosahexaenoic Acid] was tested, and the “Compound Myofibroblast Cytotoxicity Activity” value was “+++”.

`O=C(O[C@@H]1C[C@@H]2C[C@H]3C[C@H](C1)N2CC3=O)c1c[nH]c2ccccc12` [Cmpd 376, Dolasetron] was tested, and the “Compound Myofibroblast Cytotoxicity Activity” value was “++”.

`O=c1[nH]c2ccccc2n1CCCN1CCC(n2c(=O)[nH]c3cc(Cl)ccc32)CC1` [Cmpd 378, Domperidone] was tested, and the “Compound Myofibroblast Cytotoxicity Activity” value was “++”.

For `CC(O)C(=O)O.CC(O)C(=O)O.CN1CCN(c2ccc3nc(-c4c(N)c5c(F)cccc5[nH]c4=O)[nH]c3c2)CC1` [Cmpd 383, Dovitinib Dilactic acid], the “Compound Myofibroblast Cytotoxicity Activity” value was “+++”.

In the case of `COc1cc2nc(N3CCN(C(=O)C4COc5ccccc5O4)CC3)nc(N)c2cc1OC` (centres unmarked) [Cmpd 384, Doxazosin Mesylate], the “Compound Myofibroblast Cytotoxicity Activity” value is reported as “+++”.

In the case of `CN(C)CCC=C1c2ccccc2COc2ccccc21` [Cmpd 385, Doxepin (hydrochloride)], the “Compound Myofibroblast Cytotoxicity Activity” value is reported as “++”.

In the case of `C=C1/C(=C\C=C2/CCC[C@]3(C)[C@@H]([C@H](C)/C=C/[C@H](C)C(C)C)CC[C@@H]23)C[C@@H](O)C[C@@H]1O` [Cmpd 386, Doxercalciferol], the “Compound Myofibroblast Cytotoxicity Activity” value is reported as “+++”.

`C[C@H]1O[C@@H](n2cc(F)c(=O)[nH]c2=O)[C@H](O)[C@@H]1O` [Cmpd 387, Doxifluridine] was tested, and the “Compound Myofibroblast Cytotoxicity Activity” value was “++++”.

`C[C@H]1c2cccc(O)c2C(=O)C2=C(O)[C@]3(O)C(=O)C(C(N)=O)=C(O)[C@@H](N(C)C)[C@@H]3[C@@H](O)[C@@H]21` [Cmpd 388, Doxycycline HCl] was tested, and the “Compound Myofibroblast Cytotoxicity Activity” value was “++”.

In the case of `CC(C)(CO)[C@H](O)C(=O)NCCCO` [Cmpd 390, D-Panthenol], the “Compound Myofibroblast Cytotoxicity Activity” value is reported as “++”.

For `CC(C)(CO)[C@@H](O)C(=O)NCCC(=O)[O-].[Na+]` [Cmpd 391, D-Pantothenate sodium], the “Compound Myofibroblast Cytotoxicity Activity” value was “++”.

For `CNCC[C@H](Oc1cccc2ccccc12)c1cccs1` [Cmpd 397, Duloxetine HCl], the “Compound Myofibroblast Cytotoxicity Activity” value was “+++++”.

`CCCCOc1ccc(C(=O)CCN2CCCCC2)cc1` [Cmpd 398, Dyclonine HCl] was tested, and the “Compound Myofibroblast Cytotoxicity Activity” value was “+++”.

For `Clc1ccc(COC(Cn2ccnc2)c2ccc(Cl)cc2Cl)cc1` (centres unmarked) [Cmpd 403, Econazole nitrate], the “Compound Myofibroblast Cytotoxicity Activity” value was “+++”.

With `O=C([O-])CN(CCN(CC(=O)[O-])CC(=O)[O-])CC(=O)[O-].[Ca+2].[Na+].[Na+]` [Cmpd 404, edetate calcium disodium] the “Compound Myofibroblast Cytotoxicity Activity” value was “++”.

With `CC[N+](C)(C)c1cccc(O)c1.[Cl-]` [Cmpd 406, Edrophonium (chloride)] the “Compound Myofibroblast Cytotoxicity Activity” value was “+++”.

With `CC/C=C\C/C=C\C/C=C\C/C=C\C/C=C\CCCC(=O)O` [Cmpd 408, Eicosapentaenoic Acid] the “Compound Myofibroblast Cytotoxicity Activity” value was “+++”.

With `CC1=NN(c2ccc(C)c(C)c2)C(=O)/C1=N\Nc1cccc(-c2cccc(C(=O)O)c2)c1O` [Cmpd 410, Eltrombopag] the “Compound Myofibroblast Cytotoxicity Activity” value was “++”.

With `CN1CCC(COc2cnc(-c3cccc(Cn4nc(-c5cccc(C#N)c5)ccc4=O)c3)nc2)CC1` [Cmpd 413, EMD-1214063] the “Compound Myofibroblast Cytotoxicity Activity” value was “++++”.

For `Cc1cc(O)c2c(c1)C(=O)c1cc(O)cc(O)c1C2=O` [Cmpd 415, Emodin (6-Methyl-1,3,8-trihydroxyanthraquinone)], the “Compound Myofibroblast Cytotoxicity Activity” value was “++”.

In the case of `CCn1cc(C(=O)O)c(=O)c2cc(F)c(N3CCNCC3)nc21` [Cmpd 416, Enoxacin Sesquihydrate], the “Compound Myofibroblast Cytotoxicity Activity” value is reported as “++”.

In the case of `C=C1[C@H](CO)[C@@H](O)C[C@@H]1n1cnc2c(=O)[nH]c(N)nc21` [Cmpd 418, Entecavir Hydrate], the “Compound Myofibroblast Cytotoxicity Activity” value is reported as “+++”.

With `CN1CCN(c2ccc(C(=O)Nc3n[nH]c4ccc(Cc5cc(F)cc(F)c5)cc34)c(NC3CCOCC3)c2)CC1` [Cmpd 419, Entrectinib] the “Compound Myofibroblast Cytotoxicity Activity” value was “+++”.

In the case of `Cn1cc(C2=C(c3cn(C4CCN(Cc5ccccn5)CC4)c4ccccc34)C(=O)NC2=O)c2ccccc21` [Cmpd 420, Enzastaurin (LY317615)], the “Compound Myofibroblast Cytotoxicity Activity” value is reported as “++++”.

`O=S(=O)([O-])CCCS(=O)(=O)[O-].[Na+].[Na+]` [Cmpd 423, Eprodisate disodium] was tested, and the “Compound Myofibroblast Cytotoxicity Activity” value was “++”.

With `N=C(N)NCCCC[C@@H]1NC(=O)CCSSC[C@@H](C(N)=O)NC(=O)[C@@H]2CCCN2C(=O)[C@H](Cc2c[nH]c3ccccc23)NC(=O)[C@H](CC(=O)O)NC(=O)CNC1=O` [Cmpd 424, Eptifibatide Acetate] ([Mpa][hArg]GDWPC-NH2; disulfide 1-7) the “Compound Myofibroblast Cytotoxicity Activity” value was “++”.

For `COc1ccc2[n-]c([S+]([O-])Cc3ncc(C)c(OC)c3C)nc2c1.COc1ccc2[n-]c([S+]([O-])Cc3ncc(C)c(OC)c3C)nc2c1.[Mg+2]` (centres unmarked) [Cmpd 427, Esomeprazole Magnesium], the “Compound Myofibroblast Cytotoxicity Activity” value was “++”.

For `COc1ccc2[n-]c([S@@+]([O-])Cc3ncc(C)c(OC)c3C)nc2c1.COc1ccc2[n-]c([S@@+]([O-])Cc3ncc(C)c(OC)c3C)nc2c1.O.O.O.[Mg+2]` [Cmpd 428, Esomeprazole Magnesium trihydrate], the “Compound Myofibroblast Cytotoxicity Activity” value was “++”.

`C[C@]12CC[C@@H]3c4ccc(O)cc4CC[C@H]3[C@@H]1CC[C@@H]2OC(=O)CCC1CCCC1` [Cmpd 430, Estradiol Cypionate] was tested, and the “Compound Myofibroblast Cytotoxicity Activity” value was “+++”.

`CCCCC(=O)O[C@H]1CC[C@H]2[C@@H]3CCc4cc(O)ccc4[C@H]3CC[C@]12C` [Cmpd 431, Estradiol valerate] was tested, and the “Compound Myofibroblast Cytotoxicity Activity” value was “+++”.

In the case of `C[C@]12CC[C@@H]3c4ccc(OS(=O)(=O)O)cc4CC[C@H]3[C@@H]1CCC2=O` [Cmpd 432, Estropipate], the “Compound Myofibroblast Cytotoxicity Activity” value is reported as “+++”.

With `C=C(CC)C(=O)c1ccc(OCC(=O)O)c(Cl)c1Cl` [Cmpd 434, Ethacrynic Acid] the “Compound Myofibroblast Cytotoxicity Activity” value was “+++”.

For `CCC1(C)CC(=O)NC1=O` (centres unmarked) [Cmpd 436, Ethosuximide], the “Compound Myofibroblast Cytotoxicity Activity” value was “++”.
